Assay results as given in ChEMBL document CHEMBL1135268, “Design, synthesis and in vitro evaluation of potent, novel, small molecule inhibitors of plasminogen activator inhibitor-1” (Bioorg Med Chem Lett, 2002).

Experiments:
[1] = molecular target: T1, Plasminogen activator inhibitor 1 (Homo sapiens, UniProt P05121); assay: Inhibitory activity against human plasminogen activator inhibitor-1 (PAI-1) evaluated by chromogenic assay.
[2] = molecular target: T1, Plasminogen activator inhibitor 1; assay: Inhibitory activity against human plasminogen activator inhibitor-1 (PAI-1) evaluated by complex assay.

T1 sequence (P05121 whole entry): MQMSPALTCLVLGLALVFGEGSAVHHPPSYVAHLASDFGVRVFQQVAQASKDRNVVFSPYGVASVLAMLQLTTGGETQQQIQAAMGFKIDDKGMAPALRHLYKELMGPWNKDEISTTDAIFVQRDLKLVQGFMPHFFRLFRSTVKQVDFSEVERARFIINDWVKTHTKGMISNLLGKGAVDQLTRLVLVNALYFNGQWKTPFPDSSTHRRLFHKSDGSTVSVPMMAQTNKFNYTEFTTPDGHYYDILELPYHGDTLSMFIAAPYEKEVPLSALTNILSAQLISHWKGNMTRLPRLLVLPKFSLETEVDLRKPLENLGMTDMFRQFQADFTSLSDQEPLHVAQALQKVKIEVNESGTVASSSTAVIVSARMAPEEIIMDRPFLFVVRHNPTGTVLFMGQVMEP

Row | IC50 [1] [µM] | IC50 [2] [µM] | SMILES
1 | 1.85 | – | O=C(O)CCCCCCCOc1ccc(NC(=O)c2c(O)c3ccccc3[nH]c2=O)cc1
2 | > 50 | – | CC1C(O)=C(C(=O)Nc2ccc(OCCCCCCCC(=O)O)cc2)C(=O)N1c1ccccc1 (stereo not drawn)
3 | 7.9 | – | O=C(O)CCCCCCCOc1ccc(NC(=O)c2c(O)c3c([N+](=O)[O-])cccc3[nH]c2=O)cc1
4 | 0.9 | – | N#Cc1ccc2c(O)c(C(=O)Nc3ccc(OCCCCCCCC(=O)O)cc3)c(=O)[nH]c2c1
5 | 4.9 | – | O=C(O)CCCCCCCOc1ccc(NC(=O)c2c(O)c3cc(F)ccc3[nH]c2=O)cc1
6 | 3.66 | – | COc1ccc(N2CC(O)=C(C(=O)Nc3ccc(OCCCCCCCC(=O)O)cc3)C2=O)cc1
7 | 3.6 | – | O=C(O)CCCCCCCOc1ccc(NC(=O)c2c(O)nc3ccc([N+](=O)[O-])cc3c2O)cc1
8 | 2.2 | – | O=C(O)CCCCCCCOc1ccc(NC(=O)c2c(O)nc3ccc(I)cc3c2O)cc1
9 | > 20 | – | Nc1ccc2nc(O)c(C(=O)Nc3ccc(OCCCCCCCC(=O)O)cc3)c(O)c2c1
10 | > 50 | – | COc1ccccc1N1CC(O)=C(C(=O)Nc2ccc(OCCCCCCCC(=O)O)cc2)C1=O
11 | 0.67 | – | O=C(O)CCCCCCCOc1ccc(NC(=O)c2c(O)c3cc(-c4ccc5ccccc5c4)ccc3[nH]c2=O)cc1
12 | 0.3 | – | O=C(O)CCCCCCCOc1ccc(NC(=O)c2c(O)c3ccc(-c4cc5ccccc5s4)cc3[nH]c2=O)cc1
13 | 30 | – | COc1ccc(-c2cccc3c(O)c(C(=O)Nc4ccc(OCCCCCCCC(=O)O)cc4)c(=O)[nH]c23)cc1
14 | 5 | – | O=C(O)CCCCCCCOc1ccc(NC(=O)C2=C(O)CN(c3ccc(Cl)cc3)C2=O)cc1
15 | 4.25 | – | O=C(O)CCCCCCCOc1ccc(NC(=O)C2=C(O)CN(c3ccc([N+](=O)[O-])cc3)C2=O)cc1
16 | > 50 | – | O=C(O)CCCCCCCOc1ccc(NC(=O)c2c(O)c3cccc(-c4cccc5ccccc45)c3[nH]c2=O)cc1
17 | 1.65 | – | COc1cc2[nH]c(=O)c(C(=O)Nc3ccc(OCCCCCCCC(=O)O)cc3)c(O)c2cc1OC
18 | 0.89 | 0.83 | Cc1ccc(N2CC(O)=C(C(=O)Nc3ccc(OCCCCCCCn4cnnn4)cc3)C2=O)cc1
19 | 1.95 | – | O=C(O)CCCCCCCOc1ccc(NC(=O)c2c(O)nc3ccc(Cl)cc3c2O)cc1
20 | 1.95 | – | Cc1ccc(N2CC(O)=C(C(=O)Nc3ccc(OCCCCCCCC(=O)O)cc3)C2=O)cc1
21 | 1.8 | – | CCCCCc1ccc2[nH]c(=O)c(C(=O)Nc3ccc(OCCCCCCCC(=O)O)cc3)c(O)c2c1
22 | 2.35 | – | CC(C)c1ccc(N2CC(O)=C(C(=O)Nc3ccc(OCCCCCCCC(=O)O)cc3)C2=O)cc1
23 | 21 | – | O=C(O)CCCCCCCOc1ccc(NC(=O)C2=C(O)CN(c3ccccc3)C2=O)cc1
24 | 17.9 | – | COC(=O)c1cccc(N2CC(O)=C(C(=O)Nc3ccc(OCCCCCCCC(=O)O)cc3)C2=O)c1

Row | IC50 [1] [µM] | IC50 [2] [µM] | SMILES
25 | 7 | – | O=C(O)CCCCCCCOc1ccc(NC(=O)c2c(O)c3c(I)cccc3[nH]c2=O)cc1
26 | > 50 | – | O=C(O)CCCCCCCOc1ccc(NC(=O)C2=C(O)C(Cc3ccc(O)cc3)NC2=O)cc1 (stereo not drawn)
27 | 0.2 | 0.51 | O=C(O)CCCCCCCOc1ccc(/C=c2/[nH]c(=O)/c(=C/c3ccc(NC(=O)c4cccs4)cc3)[nH]c2=O)cc1
28 | 1.99 | – | O=C(O)CCCCCCCOc1ccc(NC(=O)C2=C(O)CN(c3ccc(Br)cc3)C2=O)cc1
29 | 4 | – | O=C(O)CCCCCCCOc1ccc(NC(=O)C2=C(O)CN(c3ccc4ccccc4c3)C2=O)cc1
30 | 0.69 | 0.3 | O=C(Nc1ccc(OCCCCCCCn2cnnn2)cc1)C1=C(O)CN(c2ccc(Cl)cc2)C1=O
31 | 49 | – | O=C(O)CCCCCCCOc1ccc(NC(=O)C2=C(O)C(c3ccccc3)NC2=O)cc1 (stereo not drawn)
32 | > 50 | – | CC(=O)Nc1ccc(N2CC(O)=C(C(=O)Nc3ccc(OCCCCCCCC(=O)O)cc3)C2=O)cc1
33 | 0.51 | 0.94 | O=C(O)CCCCCCCOc1ccc(NC(=O)c2c(O)nc3ccc(-c4csc5ccccc45)cc3c2O)cc1
34 | > 50 | – | O=C(O)CCCCCCCOc1ccc(NC(=O)C2=C(O)CN(c3cccc4ccccc34)C2=O)cc1
35 | 1.03 | – | O=C(O)CCCCCCCOc1ccc(NC(=O)c2c(O)c3ccc(C(F)(F)F)cc3[nH]c2=O)cc1
36 | 1.01 | 0.29 | O=C(Nc1ccc(OCCCCCCCn2cnnn2)cc1)c1c(O)c2cc(-c3cc4ccccc4s3)ccc2[nH]c1=O
37 | > 30 | – | Nc1ccc2c(O)c(C(=O)Nc3ccc(OCCCCCCCC(=O)O)cc3)c(O)nc2c1
38 | 2 | – | O=C(O)CCCCCCCOc1ccc(NC(=O)c2c(O)c3cc(-c4ccc(Cl)cc4)ccc3[nH]c2=O)cc1
39 | 0.6 | – | O=C(O)CCCCCCCOc1ccc(NC(=O)c2c(O)c3ccc(-c4ccc5ccccc5c4)cc3[nH]c2=O)cc1
40 | > 50 | – | O=C(O)CCCCCCCOc1ccc(NC(=O)C2=C(O)CN(c3ccc(N4CCOCC4)cc3)C2=O)cc1
41 | > 50 | – | O=C(O)CCCCCCCOc1ccc(NC(=O)C2=C(O)CN(Cc3ccccc3)C2=O)cc1
42 | 0.5 | – | O=C(O)CCCCCCCOc1ccc(NC(=O)c2c(O)c3cc(-c4cc5ccccc5s4)ccc3[nH]c2=O)cc1
43 | > 50 | – | O=C(O)CCCCCCCOc1ccc(NC(=O)C2=C(O)CN(c3ccccc3Cl)C2=O)cc1
44 | 13 | – | O=C(O)CCCCCCCOc1ccc(NC(=O)C2=C(O)CN(c3ccc(Cl)c(Cl)c3)C2=O)cc1
45 | 4.25 | – | Nc1cccc2nc(O)c(C(=O)Nc3ccc(OCCCCCCCC(=O)O)cc3)c(O)c12
46 | 2.35 | – | O=C(O)CCCCCCCOc1ccc(NC(=O)c2c(O)nc3cc(F)c(F)cc3c2O)cc1
47 | 3 | – | O=C(O)CCCCCCCOc1ccc(NC(=O)c2c(O)c3c(Cl)cccc3[nH]c2=O)cc1
48 | > 50 | – | COC(=O)CCCCCCCOc1ccc(NC(=O)C2=C(O)CN(c3ccc(Cl)cc3)C2=O)cc1
